The source of these data is patent US20160095843A1, “PYRAZOLOPYRROLIDINE DERIVATIVES AND THEIR USE IN THE TREATMENT OF DISEASE” (NOVARTIS AG, priority 2013, published 2016).

Like-named read-outs stand apart in the source and are kept apart here.

In one assay the test system is MV-4-11 cells. The experiment in a line: Cell growth inhibition assay (CellTiter-Glo), MV-4-11. The assay is classed as cell-based. Conditions: Homo sapiens, MV4-11. The procedure:
(§1) Cell Growth Inhibition Assay
(§2) The human leukemia cell lines MV-4-11, THP-1 and K-562 were employed to characterize the effect of BET inhibitors on cellular proliferation and viability. Cells were obtained from the American Type Culture Collection (ATCC) and cultured at 37° C. in a humidified 5% CO2 incubator in the following media: MV-4-11: DMEM high glucose (Animed #1-26F01-I), 10% FCS (Animed #2-01F26-I), 4 mM L-Glutamine (Animed #5-10K50), 1 mM Sodium Pyruvate (Animed # G03625P), 1× Penicillin-Streptomycin (Animed # F12478P); K-562: Iscove's MEM (Animed #1-28F16-I), 10% FCS (Animed #2-01F26-I), 4 mM L-Glutamine (Animed #5-10K50), 1× Penicillin-Streptomycin (Animed # F12478P); THP-1: RPMI-1640 (Animed #1-41F01-I), 10% FCS (Animed #2-01F26-I), 2 mM L-Glutamine (Animed #5-10K50), 10 mM HEPES (Animed #5-31F100), 1 mM Sodium Pyruvate (Animed # G03625P), 1× Penicillin-Streptomycin (Animed # F12478P). The AML lines MV-4-11 and THP-1 are very sensitive to BET inhibitors and show massive cell death upon BET inhibition (Zuber et al., Nature, 478 (2011), 524-8). Compound-mediated suppression of cell proliferation/viability was assessed by quantification of cellular ATP levels using the CellTiter-Glo (CTG) reagent (Promega). Briefly, cells were seeded in 20 μl fresh medium into 384-well plates, followed by addition of 5 μL medium containing compound dilutions at 5-fold their final intended concentration. Dose-response effects were assessed by 3-fold serial dilutions of the test compound, starting at 10 μM. Following incubation of the cells for 4 days at 37° C. and 5% CO2, the effect of inhibitors on cell viability was quantified following addition of 20 μl CTG and luminescence quantification (integration time: 100 ms) as per vendor manual, using a correspondingly equipped Tecan M200 multi-mode platereader (TECAN, Switzerland). For data analysis, the assay background value determined in wells containing medium, but no cells, was subtracted from all data points. To enable differentiation of cytotoxic from cytostatic compounds, the number of viable cells is assessed relative to that observed at the time of compound addition using a separate cell plate (day 0). The effect of a particular test compound concentration on cell proliferation/viability is expressed as percentage of the background- and day 0-corrected luminescence reading obtained for cells treated with vehicle only (DMSO, 0.1% final concentration), which is set as 100%, whereas that luminescence reading for wells containing medium is set as −100%. Compound concentrations leading to half-maximal (1050) and total growth inhibition (TGI) were determined using standard four parameter curve fitting.

The subject of another assay is THP-1 cells. The experiment in a line: Cell growth inhibition assay (CellTiter-Glo), THP-1. In kind it is cell-based. Conditions: Homo sapiens. The procedure:
as §1, §2
Background: Cellular ATP, detected with luciferase, serves as a proxy for viable cell number.

The next assay concerns K-562 cells. Nature of the assay: Cell growth inhibition assay (CellTiter-Glo), K-562. In kind it is cell-based, human. The procedure:
as §1, §2

For `COc1ncccc1-n1nc(C)c2c1C(=O)N(c1cc(C)c(=O)n(C)c1)[C@H]2c1ccc(Cl)cc1` [Example 127, (S)-4-(4-chlorophenyl)-5-(1,5-dimethyl-6-oxo-1,6-dihydropyridin-3-yl)-1-(2-methoxypyridin-3-yl)-3-methyl-4,5-dihydropyrrolo-[3,4-c]pyrazol-6(1H)-one], the GI50 was 2.26 µM in the assay with MV-4-11 cells; 4.23 µM with THP-1 cells; over 10 µM in the assay on K-562 cells (Homo sapiens, K562).
The corresponding values for `Cc1nn(C2CC2)c2c1C(c1ccc(Cl)cc1)N(c1cc(C)c3nnc(C)n3c1)C2=O` (stereo not shown) [Example 92, 4-(4-chlorophenyl)-1-cyclopropyl-5-(3,8-dimethyl-[1,2,4]triazolo[4,3-a]pyridin-6-yl)-3-methyl-4,5-dihydropyrrolo-[3,4-c]pyrazol-6(1H)-one] are 0.0109 µM, 0.0192 µM and 0.065 µM.
On to `Cc1nn(C2CC2)c2c1C(c1ccc(Cl)cc1F)N(c1cc(C)c(=O)n(C)c1)C2=O` (stereo not shown) [Example 179, 4-(4-chloro-2-fluorophenyl)-1-cyclopropyl-5-(1,5-dimethyl-6-oxo-1,6-dihydropyridin-3-yl)-3-methyl-4,5-dihydropyrrolo[3,4-c]pyrazol-6(1H)-one], for which the GI50 was 0.0774 µM with MV-4-11 cells; 0.112 µM in the assay with THP-1 cells; 0.372 µM in the assay with K-562 cells (Homo sapiens, K562).
As for `Cc1nn(-c2ccnn2C)c2c1C(c1ccc(Cl)cc1)N(c1cc(C)c(=O)n(C)c1)C2=O` (racemic) [Example 74, 4-(4-chlorophenyl)-5-(1,5-dimethyl-6-oxo-1,6-dihydropyridin-3-yl)-3-methyl-1-(1-methyl-1H-pyrazol-5-yl)-4,5-dihydropyrrolo-[3,4-c]pyrazol-6(1H)-one], the GI50 in the assay on MV-4-11 cells was 0.0958 µM; with THP-1 cells, 0.142 µM; with K-562 cells (Homo sapiens, K562), 0.459 µM. Besides, the IC (TGI) in the assay with MV-4-11 cells is 0.103 µM; in the assay on THP-1 cells, 0.327 µM; in the assay with K-562 cells (Homo sapiens, K562), over 10 µM.
As for `Cc1nn(C2CC2)c2c1C(c1ccc(F)cc1F)N(c1cc(C)c3nnc(C)n3c1)C2=O` (stereo not shown) [Example 176, 1-cyclopropyl-4-(2,4-difluorophenyl)-5-(3,8-dimethyl-[1,2,4]triazolo[4,3-a]pyridin-6-yl)-3-methyl-4,5-dihydropyrrolo-[3,4-c]pyrazol-6(1H)-one], the GI50 came out at 0.0303 µM with MV-4-11 cells; 0.0556 µM with THP-1 cells; 0.145 µM in the assay on K-562 cells (Homo sapiens, K562).
The corresponding values for `COCc1nn(C2CC2)c2c1[C@@H](c1ccc(Cl)cc1)N(c1cc(C)c3nnc(C)n3c1)C2=O` [Example 163, (R)-4-(4-chlorophenyl)-1-cyclopropyl-5-(3,8-dimethyl-[1,2,4]triazolo[4,3-a]pyridin-6-yl)-3-(methoxymethyl)-4,5-dihydropyrrolo-[3,4-c]pyrazol-6(1H)-one] are 0.0103 µM, 0.0175 µM and 0.0798 µM.
For `Cc1nn(-c2ccnn2C)c2c1[C@@H](c1ccc(Cl)cc1)N(c1cc(C)c3nnc(C)n3c1)C2=O` [Example 125, (R)-4-(4-chlorophenyl)-5-(3,8-dimethyl-[1,2,4]triazolo[4,3-a]pyridin-6-yl)-3-methyl-1-(1-methyl-1H-pyrazol-5-yl)-4,5-dihydropyrrolo[3,4-c]pyrazol-6(1H)-one], the GI50 with MV-4-11 cells stood at 0.0187 µM; in the assay on THP-1 cells, 0.0258 µM; with K-562 cells (Homo sapiens, K562), 0.101 µM. Also, in the assay on K-562 cells, the IC (TGI) is over 10 µM.
`COc1ncc(-n2nc3c(c2C)C(c2ccc(Cl)cc2)N(c2cc(Cl)c(=O)n(C)c2)C3=O)c(OC)n1` (stereo not shown) [Example 55, 5-(5-chloro-1-methyl-6-oxo-1,6-dihydropyridin-3-yl)-4-(4-chlorophenyl)-2-(2,4-dimethoxypyrimidin-5-yl)-3-methyl-4,5-dihydropyrrolo[3,4-c]pyrazol-6(2H)-one]: the GI50 in the assay with MV-4-11 cells was 0.0891 µM; in the assay with THP-1 cells, 0.231 µM; in the assay with K-562 cells (Homo sapiens, K562) it was 0.4 µM.
In the case of `COCc1nn(C2CC2)c2c1[C@@H](c1ccc(Cl)cc1)N(c1cc(C)c(=O)n(C)c1)C2=O` [Example 162, (R)-4-(4-chlorophenyl)-1-cyclopropyl-5-(1,5-dimethyl-6-oxo-1,6-dihydropyridin-3-yl)-3-(methoxymethyl)-4,5-dihydropyrrolo[3,4-c]pyrazol-6(1H)-one], the GI50 amounted to 0.0418 µM in the assay with MV-4-11 cells; 0.0546 µM with THP-1 cells; 0.244 µM in the assay with K-562 cells (Homo sapiens, K562).
As to `Cc1n[nH]c2c1[C@@H](c1ccc(Cl)cc1)N(c1cc(C)c3nnc(C)n3c1)C2=O` [Example 165, (R)-4-(4-chlorophenyl)-5-(3,8-dimethyl-[1,2,4]triazolo[4,3-a]pyridin-6-yl)-3-methyl-4,5-dihydropyrrolo[3,4-c]pyrazol-6(1H)-one], the GI50 is 0.0217 µM in the assay with MV-4-11 cells; 0.0383 µM with THP-1 cells; 0.191 µM in the assay with K-562 cells (Homo sapiens, K562).
`Cc1nn(C2CN(C)C2)c2c1C(c1ccc(Cl)cc1)N(c1cc(C)c(=O)n(C)c1)C2=O` (stereo not shown) [Example 140, 4-(4-chlorophenyl)-5-(1,5-dimethyl-6-oxo-1,6-dihydropyridin-3-yl)-3-methyl-1-(1-methylazetidin-3-yl)-4,5-dihydropyrrolo-[3,4-c]pyrazol-6(1H)-one]: the GI50 in the assay on MV-4-11 cells turned out to be 0.106 µM; with THP-1 cells it was 0.392 µM; with K-562 cells (Homo sapiens, K562), 1.37 µM.
For `COc1ncc(-n2nc(C)c3c2C(=O)N(c2cc(C)c(=O)n(C)c2)C3c2ccc(Cl)cc2)c(OC)n1` (racemic) [Example 52, 4-(4-chlorophenyl)-1-(2,4-dimethoxypyrimidin-5-yl)-5-(1,5-dimethyl-6-oxo-1,6-dihydropyridin-3-yl)-3-methyl-4,5-dihydropyrrolo[3,4-c]pyrazol-6(1H)-one], the GI50 with MV-4-11 cells stood at 0.0974 µM; in the assay on THP-1 cells, 0.198 µM; in the assay on K-562 cells (Homo sapiens, K562), 0.424 µM. The IC (TGI) in the assay with MV-4-11 cells was 0.156 µM; in the assay on THP-1 cells it was 0.345 µM; in the assay on K-562 cells (Homo sapiens, K562), over 10 µM.
`CC(=O)N1CC(n2nc(C)c3c2C(=O)N(c2cc(C)c4nnc(C)n4c2)C3c2ccc(Cl)cc2)C1` (stereo not shown) [Example 154, 1-(1-acetylazetidin-3-yl)-4-(4-chlorophenyl)-5-(3,8-dimethyl-[1,2,4]triazolo[4,3-a]pyridin-6-yl)-3-methyl-4,5-dihydropyrrolo[3,4-c]pyrazol-6(1H)-one]: the GI50 in the assay with MV-4-11 cells is 0.059 µM; in the assay on THP-1 cells, 0.243 µM; in the assay with K-562 cells (Homo sapiens, K562), 0.956 µM.
Turning to `Cc1nn(C2COC2)c2c1C(c1ccc(Cl)cc1)N(c1cc(C)c3nnc(C)n3c1)C2=O` (stereo not shown) [Example 137, 4-(4-chlorophenyl)-5-(3,8-dimethyl-[1,2,4]triazolo[4,3-a]pyridin-6-yl)-3-methyl-1-(oxetan-3-yl)-4,5-dihydropyrrolo[3,4-c]pyrazol-6(1H)-one], the GI50 stood at 0.0231 µM with MV-4-11 cells; 0.064 µM in the assay with THP-1 cells; 0.248 µM in the assay with K-562 cells (Homo sapiens, K562).
Turning to `Cc1cc(N2C(=O)c3nn(C(=O)N(C)C)c(C)c3C2c2ccc(Cl)cc2)cn(C)c1=O` (stereo not shown) [Example 141], the GI50 was 0.136 µM in the assay on MV-4-11 cells; 0.281 µM in the assay on THP-1 cells; 1.19 µM in the assay with K-562 cells (Homo sapiens, K562).
As for `CCn1nc2c(c1C)C(c1ccc(Cl)cc1)N(c1cc(C)c3nnc(C)n3c1)C2=O` (stereo not shown) [Example 115, 4-(4-chlorophenyl)-5-(3,8-dimethyl-[1,2,4]triazolo[4,3-a]pyridin-6-yl)-2-ethyl-3-methyl-4,5-dihydropyrrolo-[3,4-c]pyrazol-6(2H)-one], the GI50 is 0.0224 µM in the assay with MV-4-11 cells; 0.0348 µM in the assay on THP-1 cells; 0.142 µM in the assay with K-562 cells (Homo sapiens, K562).
The corresponding values for `CCc1c2c(nn1C(=O)N(C)C)C(=O)N(c1cc(C)c(=O)n(C)c1)C2c1ccc(Cl)cc1` (stereo not shown) [Example 148, 4-(4-chlorophenyl)-5-(1,5-dimethyl-6-oxo-1,6-dihydropyridin-3-yl)-3-ethyl-N,N-dimethyl-6-oxo-5,6-dihydropyrrolo-[3,4-c]pyrazole-2(4H)-carboxamide] are 0.0817 µM, 0.157 µM and 1.13 µM.
As for `Cc1cc(N2C(=O)c3nn(C4COC4)c(C)c3C2c2ccc(Cl)cc2)cn(C)c1=O` (stereo not shown) [Example 134, 4-(4-chlorophenyl)-5-(1,5-dimethyl-6-oxo-1,6-dihydropyridin-3-yl)-3-methyl-2-(oxetan-3-yl)-4,5-dihydropyrrolo[3,4-c]pyrazol-6(2H)-one], the GI50 in the assay with MV-4-11 cells is 0.117 µM; in the assay with THP-1 cells, 0.161 µM; with K-562 cells (Homo sapiens, K562), 0.574 µM.

The term GI50 denotes the concentration that inhibits growth by half. A high value points to lower sensitivity of the cells.
